Results on 4 compounds are retold here after US11219607B2, “Methods for suppressing cancer-related cachexia” (Ohio State Innovation Foundation, priority 2013, dated 2022).

Entries after “also recorded” stand apart in the source; their conditions may differ.

Assay [1] concerns C-26 tumor-bearing mice. The conditions noted are these: literature reference (33); cited from earlier work.
A further assay has as its system Atrogin-1/MAFbx mRNA. Nature of the assay: qPCR of gastrocnemius muscle, C-26 model: Atrogin-1. The assay is classed as in vivo, CD2F1 mice. The conditions noted are these: C-26 tumor-bearing mice, 15 days after tumor cell injection, tumor-bearing/vehicle 29.4±3.5-fold, mean±S.D. Here is the method:
(§1) Total RNA was isolated from homogenized gastrocnemius muscles (n=3/group) with TRIzol reagent (Life Technologies, Carlsbad, Calif.) and then purified using the RNAeasy Mini Kit (Qiagen, Valencia, Calif.). qRT-PCR was performed as described previously (42) by using the Bio-Rad CFX96 Real-Time PCR Detection System with iQ SYBR Green Supermix (Bio-Rad, Hercules, Calif.). RNA-seq library generation and data analysis were performed at The Ohio State University Comprehensive Cancer Center (OSUCCC) Nucleic Acid Shared Resource.
(§2) AR-42 was able to restore expression of Atrogin-1 (2.7±0.7-fold) and MuRF1 (1.1±0.2-fold) mRNA to basal levels […].

The next assay relates to MuRF1 mRNA. Description: qPCR of gastrocnemius muscle, C-26 model: MuRF1. Type of assay: in vivo, CD2F1 mice. The conditions noted are these: C-26 tumor-bearing mice, 15 days after tumor cell injection, tumor-bearing/vehicle 25.8±3.9-fold, mean±S.D. Here is the method: as §1, §2
Assay [2] concerns C-26 tumor-bearing mice. Description: Survival and body weight comparison of HDAC inhibitors, C-26 model. The assay is classed as in vivo, CD2F1 mice. As to conditions: vorinostat 50 mg/kg p.o. once daily, romidepsin 0.6 mg/kg i.p. twice weekly, from day 6. On the procedure:
In one aspect, tumors were established by subcutaneous injection of C-26 cells (0.5×10^6 cells in 0.1 ml) into the right flank of male CD2F1 mice (approximately 6 weeks of age; Harlan Laboratories, Indianapolis, Ind.)(11). Tumor-bearing mice, as well as tumor-free mice serving as non-cachectic controls, were randomized into groups that were treated with either AR-42 (50 mg/kg, p.o. by gavage, every other day; Arno Therapeutics, Inc., Flemington, N.J.) or vehicle (0.5% methylcellulose (w/v) and 0.1% Tween-80 (v/v) in sterile water) starting 6 days after cell injection. To investigate the effect of delayed treatment, treatments with drug and/or vehicle were started 6, 10 and 12 days after cancer cell injection.
In another aspect, the effects of AR-42 were compared to other HDAC inhibitors. […]
The effects of AR-42 were compared to other HDAC inhibitors (i.e., vorinostat and romidepsin) in C-26 tumor-bearing mice. Starting on day 6 after tumor cell injection, mice were treated continuously with AR-42 (50 mg/kg every other day, orally), vorinostat [50 mg/kg once daily, orally (13)], romidepsin [0.6 mg/kg twice weekly, i.p. (14)], or vehicle, until weight loss, as determined by daily body weight measurements and subtraction of tumor mass, reached 20% of starting weight. […]

Regarding `CCCC(CCC)C(=O)O` [valproic acid], the “reversal of muscle loss in C-26 tumor-bearing mice” value in the assay with C-26 tumor-bearing mice [1] is “could not reverse muscle loss”.

For `CC(/C=C/C(=O)NO)=C\[C@@H](C)C(=O)c1ccc(N(C)C)cc1` [trichostatin-A], the “reversal of muscle loss in C-26 tumor-bearing mice” value in the assay with C-26 tumor-bearing mice [1] is on record as “could not reverse muscle loss”.

Take `C/C=C1\NC(=O)[C@H]2CSSCC/C=C/[C@H](CC(=O)N[C@H](C(C)C)C(=O)N2)OC(=O)[C@H](C(C)C)NC1=O` [romidepsin]: the “Atrogin-1 mRNA level relative to tumor-free/vehicle control” value with Atrogin-1/MAFbx mRNA was 19.6±3.1 fold. In addition, the “MuRF1 mRNA level relative to tumor-free/vehicle control” value in the assay on MuRF1 mRNA is 14.6±3.3 fold.

For `O=C(CCCCCCC(=O)Nc1ccccc1)NO` [vorinostat], the “protective effect on body weight / attenuation of cachexia-induced weight loss” value in the assay on C-26 tumor-bearing mice [2] is listed as “limited or no appreciable protective effects; also recorded: ineffective”. Further, the “Atrogin-1 mRNA level relative to tumor-free/vehicle control” value in the assay on Atrogin-1/MAFbx mRNA came to 9.6±1.8 fold. In the assay on MuRF1 mRNA, the “MuRF1 mRNA level relative to tumor-free/vehicle control” value came out at 5.5±1.1 fold.
